Laboratory results reported in PubChem BioAssay AID1963837 (Molecular Pharmacology Branch, DTP, NCI, 2024).

Tested on: 843126-344-R-J1-PDC complex spheroid viability
Experiment: Anticancer human tumor 843126-344-R-J1-PDC patient-derived melanoma cell line growth inhibition [POLQ]
Details: for IC50: curve of first compound; for viability, T/C: stronger effect = lower value
Procedure, shortened: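 Complex spheroid viability model combining PDC tumour cells with endothelial (HUVEC) and MSC stromal cells. Novobiocin, ART-558 or RP6685 were tested singly and in combination with standard and investigational anticancer drugs. Each was titrated in half-log steps from near clinical Cmax, or from 10 microM where Cmax was unknown.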

[1] = second compound 0.0316 µM, first compound 0.0316 µM
[2] = second compound 0.0316 µM, first compound 0.1 µM
[3] = second compound 0.0316 µM, first compound 0.316 µM
[4] = second compound 0.0316 µM, first compound 1 µM
[5] = second compound 0.0316 µM, first compound 3.16 µM
[6] = second compound 0.0316 µM, first compound 10 µM
[7] = second compound 0.1 µM, first compound 0.0316 µM
[8] = second compound 0.1 µM, first compound 0.1 µM
[9] = second compound 0.1 µM, first compound 0.316 µM
[10] = second compound 0.1 µM, first compound 1 µM
[11] = second compound 0.1 µM, first compound 3.16 µM
[12] = second compound 0.1 µM, first compound 10 µM
[13] = second compound 0.316 µM, first compound 0.0316 µM
[14] = second compound 0.316 µM, first compound 0.1 µM
[15] = second compound 0.316 µM, first compound 0.316 µM
[16] = second compound 0.316 µM, first compound 1 µM
[17] = second compound 0.316 µM, first compound 3.16 µM
[18] = second compound 0.316 µM, first compound 10 µM
[19] = second compound 1 µM, first compound 0.0316 µM
[20] = second compound 1 µM, first compound 0.1 µM
[21] = second compound 1 µM, first compound 0.316 µM
[22] = second compound 1 µM, first compound 1 µM
[23] = second compound 1 µM, first compound 3.16 µM
[24] = second compound 1 µM, first compound 10 µM
[25] = second compound 3.16 µM, first compound 0.0316 µM
[26] = second compound 3.16 µM, first compound 0.1 µM
[27] = second compound 3.16 µM, first compound 0.316 µM
[28] = second compound 3.16 µM, first compound 1 µM
[29] = second compound 3.16 µM, first compound 3.16 µM
[30] = second compound 3.16 µM, first compound 10 µM
[31] = second compound 10 µM, first compound 0.0316 µM
[32] = second compound 10 µM, first compound 0.1 µM
[33] = second compound 10 µM, first compound 0.316 µM
[34] = second compound 10 µM, first compound 1 µM
[35] = second compound 10 µM, first compound 3.16 µM
[36] = second compound 10 µM, first compound 10 µM
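Wherever viability, T/C is given: spheroids exposed to drugs for seven days before readout.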

In the case of `CC1COCCN1c1cc(C2(S(C)(=N)=O)CC2)nc(-c2ccnc3[nH]ccc23)n1` (stereo not drawn) + COC1C(OC(N)=O)C(O)C(Oc2ccc3c(O)c(NC(=O)c4ccc(O)c(CC=C(C)C)c4)c(=O)oc3c2C)OC1(C)C, the IC50 (second compound 0.0316 µM) is reported as greater than 10 µM, the IC50 (second compound 0.1 µM) is reported as greater than 10 µM and the IC50 (second compound 0.316 µM) is reported as greater than 10 µM. It also gave an IC50 (second compound 1 µM) of 8.62 µM, an IC50 (second compound 3.16 µM) of 9.28 µM and an IC50 (second compound 10 µM) of 9.69 µM. For the same compound, the viability, T/C [1] was 99%, the viability, T/C [2] was 98% and the viability, T/C [3] was 110%. For the same compound, the viability, T/C [4] was 99.6%, the viability, T/C [5] was 59.2% and the viability, T/C [6] was 55.9%. For the same compound, the viability, T/C [7] was 90.9%, the viability, T/C [8] was 80.3% and the viability, T/C [9] was 97.6%. It also gave a viability, T/C [10] of 80.6%, a viability, T/C [11] of 65.7% and a viability, T/C [12] of 55.3%. For the same compound, the viability, T/C [13] was 103%, the viability, T/C [14] was 79.8% and the viability, T/C [15] was 81.2%. For the same compound, the viability, T/C [16] was 89%, the viability, T/C [17] was 56.9% and the viability, T/C [18] was 53.5%. For the same compound, the viability, T/C [19] was 84.6%, the viability, T/C [20] was 88.3% and the viability, T/C [21] was 78.5%. The viability, T/C [22] was 96.3%, the viability, T/C [23] was 69.2% and the viability, T/C [24] was 47.1%. It also gave a viability, T/C [25] of 87.1%, a viability, T/C [26] of 89.1% and a viability, T/C [27] of 89%. It also gave a viability, T/C [28] of 79.5%, a viability, T/C [29] of 74% and a viability, T/C [30] of 48%. The viability, T/C [31] was 94.8%, the viability, T/C [32] was 101% and the viability, T/C [33] was 74.1%. The viability, T/C [34] was 89.7%, the viability, T/C [35] was 69.3% and the viability, T/C [36] was 48.7%.

For `O=C(Nc1ccc(O)c(NS(=O)(=O)c2ccc(F)cc2)c1)c1ccc(-c2ccccc2)cc1` + COC1C(OC(N)=O)C(O)C(Oc2ccc3c(O)c(NC(=O)c4ccc(O)c(CC=C(C)C)c4)c(=O)oc3c2C)OC1(C)C, the IC50 (second compound 0.0316 µM) was greater than 10 µM, the IC50 (second compound 0.1 µM) was greater than 10 µM and the IC50 (second compound 0.316 µM) was greater than 10 µM. The IC50 (second compound 1 µM) was greater than 10 µM, the IC50 (second compound 3.16 µM) was greater than 10 µM and the IC50 (second compound 10 µM) was greater than 10 µM. It also gave a viability, T/C [1] of 118%, a viability, T/C [2] of 105% and a viability, T/C [3] of 100%. The viability, T/C [4] was 119%, the viability, T/C [5] was 99% and the viability, T/C [6] was 69.4%. It also gave a viability, T/C [7] of 94.3%, a viability, T/C [8] of 93.8% and a viability, T/C [9] of 119%. It also gave a viability, T/C [10] of 99.6%, a viability, T/C [11] of 87.9% and a viability, T/C [12] of 61.9%. The viability, T/C [13] was 92.8%, the viability, T/C [14] was 98.3% and the viability, T/C [15] was 113%. It also gave a viability, T/C [16] of 95.5%, a viability, T/C [17] of 91.8% and a viability, T/C [18] of 73.1%. For the same compound, the viability, T/C [19] was 90.9%, the viability, T/C [20] was 85.3% and the viability, T/C [21] was 91.9%. For the same compound, the viability, T/C [22] was 98.9%, the viability, T/C [23] was 112% and the viability, T/C [24] was 89.3%. For the same compound, the viability, T/C [25] was 95.5%, the viability, T/C [26] was 93.9% and the viability, T/C [27] was 92.9%. The viability, T/C [28] was 93.8%, the viability, T/C [29] was 89.4% and the viability, T/C [30] was 76.3%. It also gave a viability, T/C [31] of 82.6%, a viability, T/C [32] of 78.8% and a viability, T/C [33] of 97.1%. The viability, T/C [34] was 94.5%, the viability, T/C [35] was 86.8% and the viability, T/C [36] was 79.7%.

`COc1cc2cc(C(=O)CCC(=O)O)sc2cc1OC` + Cc1cccc(N(C)C(=O)C2C(O)CCN2c2nc(C)cc(C(F)(F)F)c2C#N)c1 gave an IC50 (second compound 0.0316 µM) greater than 10 µM, an IC50 (second compound 0.1 µM) greater than 10 µM and an IC50 (second compound 0.316 µM) greater than 10 µM. It also gave an IC50 (second compound 1 µM) greater than 10 µM, an IC50 (second compound 3.16 µM) greater than 10 µM and an IC50 (second compound 10 µM) greater than 10 µM. It also gave a viability, T/C [1] of 95.8%, a viability, T/C [2] of 83.5% and a viability, T/C [3] of 95.1%. The viability, T/C [4] was 98.8%, the viability, T/C [5] was 96.4% and the viability, T/C [6] was 92.4%. For the same compound, the viability, T/C [7] was 91.1%, the viability, T/C [8] was 91.4% and the viability, T/C [9] was 84.9%. It also gave a viability, T/C [10] of 83.7%, a viability, T/C [11] of 94.4% and a viability, T/C [12] of 85.2%. The viability, T/C [13] was 97.2%, the viability, T/C [14] was 92.4% and the viability, T/C [15] was 90.1%. For the same compound, the viability, T/C [16] was 96.6%, the viability, T/C [17] was 88.8% and the viability, T/C [18] was 89%. It also gave a viability, T/C [19] of 81.7%, a viability, T/C [20] of 84.2% and a viability, T/C [21] of 88.1%. It also gave a viability, T/C [22] of 93.5%, a viability, T/C [23] of 91.8% and a viability, T/C [24] of 86.4%. It also gave a viability, T/C [25] of 89.9%, a viability, T/C [26] of 83% and a viability, T/C [27] of 98.5%. The viability, T/C [28] was 98.4%, the viability, T/C [29] was 96.3% and the viability, T/C [30] was 82.3%. For the same compound, the viability, T/C [31] was 95.7%, the viability, T/C [32] was 90.6% and the viability, T/C [33] was 92.1%. The viability, T/C [34] was 89.7%, the viability, T/C [35] was 90.9% and the viability, T/C [36] was 86.1%.

With `O=C(Nc1ccc(O)c(NS(=O)(=O)c2ccc(F)cc2)c1)c1ccc(-c2ccccc2)cc1` + Nc1ccc(C#CCN(C(=O)Cc2ncc(C(F)(F)F)cc2C(F)(F)F)c2ccc(F)cc2)nn1 the IC50 (second compound 0.0316 µM) was greater than 10 µM, the IC50 (second compound 0.1 µM) was greater than 10 µM and the IC50 (second compound 0.316 µM) was greater than 10 µM. It also gave an IC50 (second compound 1 µM) greater than 10 µM, an IC50 (second compound 3.16 µM) greater than 10 µM and an IC50 (second compound 10 µM) greater than 10 µM. It also gave a viability, T/C [1] of 82.5%, a viability, T/C [2] of 94.9% and a viability, T/C [3] of 91.8%. The viability, T/C [4] was 80.5%, the viability, T/C [5] was 82.2% and the viability, T/C [6] was 73.6%. For the same compound, the viability, T/C [7] was 91.6%, the viability, T/C [8] was 102% and the viability, T/C [9] was 82.2%. The viability, T/C [10] was 85.4%, the viability, T/C [11] was 89.1% and the viability, T/C [12] was 64.8%. For the same compound, the viability, T/C [13] was 100%, the viability, T/C [14] was 92.5% and the viability, T/C [15] was 98.8%. The viability, T/C [16] was 84.3%, the viability, T/C [17] was 96.3% and the viability, T/C [18] was 61.5%. The viability, T/C [19] was 98.3%, the viability, T/C [20] was 97.1% and the viability, T/C [21] was 81.3%. It also gave a viability, T/C [22] of 90%, a viability, T/C [23] of 82.2% and a viability, T/C [24] of 67.8%. It also gave a viability, T/C [25] of 92%, a viability, T/C [26] of 91.4% and a viability, T/C [27] of 89.5%. It also gave a viability, T/C [28] of 86.1%, a viability, T/C [29] of 78.8% and a viability, T/C [30] of 67.3%. For the same compound, the viability, T/C [31] was 82.3%, the viability, T/C [32] was 74.1% and the viability, T/C [33] was 86.9%. For the same compound, the viability, T/C [34] was 72.4%, the viability, T/C [35] was 80.6% and the viability, T/C [36] was 55.4%.
